Results: PubChem BioAssay (NCI)
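These data come from cells grown in 96-well plates and exposed to compound for 48 hours at five concentrations. The concentration for 50% growth inhibition is given as GI50. TGI marks complete inhibition of growth.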

How the values were obtained:
Experiment in all cases: growth of human tumour cells (NCI), 48 h
SK-OV-3 ovarian = tested on: SK-OV-3 ovarian
MCF7 breast = tested on: MCF7 breast
MALME-3M melanoma = tested on: MALME-3M melanoma
RPMI-8226 leukemia = tested on: RPMI-8226 leukemia
SK-MEL-28 melanoma = tested on: SK-MEL-28 melanoma
NCI/ADR-RES ovarian = tested on: NCI/ADR-RES ovarian
RXF 393 renal = tested on: RXF 393 renal
A498 renal = tested on: A498 renal
SW-620 colon = tested on: SW-620 colon
TK-10 renal = tested on: TK-10 renal
786-0 renal = tested on: 786-0 renal
PC-3 prostate = tested on: PC-3 prostate
MDA-N = tested on: MDA-N
T-47D breast = tested on: T-47D breast
HCC-2998 colon = tested on: HCC-2998 colon
LOX IMVI melanoma = tested on: LOX IMVI melanoma
SR leukemia = tested on: SR leukemia
SF-539 CNS = tested on: SF-539 CNS
SNB-75 CNS = tested on: SNB-75 CNS
MDA-MB-231 breast = tested on: MDA-MB-231 breast
HT29 colon = tested on: HT29 colon
SNB-19 CNS = tested on: SNB-19 CNS
OVCAR-3 ovarian = tested on: OVCAR-3 ovarian
CAKI-1 renal = tested on: CAKI-1 renal
MOLT-4 leukemia = tested on: MOLT-4 leukemia
SF-268 CNS = tested on: SF-268 CNS
OVCAR-8 ovarian = tested on: OVCAR-8 ovarian
UACC-62 melanoma = tested on: UACC-62 melanoma
COLO 205 colon = tested on: COLO 205 colon
U251 CNS = tested on: U251 CNS
DU-145 prostate = tested on: DU-145 prostate
IGROV1 ovarian = tested on: IGROV1 ovarian
MDA-MB-435 = tested on: MDA-MB-435
ACHN renal = tested on: ACHN renal
M14 melanoma = tested on: M14 melanoma
HL-60(TB) leukemia = tested on: HL-60(TB) leukemia
KM12 colon = tested on: KM12 colon
OVCAR-5 ovarian = tested on: OVCAR-5 ovarian
HCT-15 colon = tested on: HCT-15 colon
K-562 leukemia = tested on: K-562 leukemia
NCI-H23 lung = tested on: NCI-H23 lung
NCI-H226 lung = tested on: NCI-H226 lung
NCI-H460 lung = tested on: NCI-H460 lung
SN12C renal = tested on: SN12C renal
OVCAR-4 ovarian = tested on: OVCAR-4 ovarian
A549 NSCLC = tested on: A549 NSCLC
SK-MEL-5 melanoma = tested on: SK-MEL-5 melanoma
SF-295 CNS = tested on: SF-295 CNS
EKVX NSCLC = tested on: EKVX NSCLC
HCT-116 colon = tested on: HCT-116 colon
HOP-92 NSCLC = tested on: HOP-92 NSCLC
UACC-257 melanoma = tested on: UACC-257 melanoma
SK-MEL-2 melanoma = tested on: SK-MEL-2 melanoma
HS 578T breast = tested on: HS 578T breast
CCRF-CEM leukemia = tested on: CCRF-CEM leukemia
NCI-H522 lung = tested on: NCI-H522 lung
UO-31 renal = tested on: UO-31 renal
HOP-62 NSCLC = tested on: HOP-62 NSCLC
BT-549 breast = tested on: BT-549 breast

Compound: CCOC(=O)c1cnc2oc3ccc(O)cc3c2c1-c1ccccc1
- TGI (SK-OV-3 ovarian): 46.1 µM
- TGI (MCF7 breast): > 100 µM
- TGI (MALME-3M melanoma): > 100 µM
- TGI (RPMI-8226 leukemia): > 100 µM
- TGI (SK-MEL-28 melanoma): > 100 µM
- GI50 (NCI/ADR-RES ovarian): 4.77 µM
- TGI (NCI/ADR-RES ovarian): 73.7 µM
- TGI (RXF 393 renal): > 100 µM
- TGI (A498 renal): > 100 µM
- TGI (SW-620 colon): > 100 µM
- TGI (TK-10 renal): > 100 µM
- TGI (786-0 renal): > 100 µM
- TGI (PC-3 prostate): > 100 µM
- TGI (MDA-N): > 100 µM
- TGI (T-47D breast): > 100 µM
- TGI (HCC-2998 colon): > 100 µM
- TGI (LOX IMVI melanoma): > 100 µM
- TGI (SR leukemia): > 100 µM
- TGI (SF-539 CNS): 46.5 µM
- GI50 (SNB-75 CNS): 16.5 µM
- TGI (SNB-75 CNS): 52.4 µM
- TGI (MDA-MB-231 breast): 84.5 µM
- TGI (HT29 colon): > 100 µM
- TGI (SNB-19 CNS): > 100 µM
- TGI (OVCAR-3 ovarian): > 100 µM
- TGI (CAKI-1 renal): > 100 µM
- TGI (MOLT-4 leukemia): > 100 µM
- GI50 (SF-268 CNS): 29.7 µM
- TGI (SF-268 CNS): > 100 µM
- TGI (OVCAR-8 ovarian): > 100 µM
- TGI (UACC-62 melanoma): > 100 µM
- TGI (COLO 205 colon): > 100 µM
- TGI (U251 CNS): > 100 µM
- TGI (DU-145 prostate): > 100 µM
- GI50 (IGROV1 ovarian): 2.53 µM
- TGI (IGROV1 ovarian): > 100 µM
- TGI (MDA-MB-435): > 100 µM
- TGI (ACHN renal): > 100 µM
- TGI (M14 melanoma): > 100 µM
- TGI (HL-60(TB) leukemia): > 100 µM
- GI50 (KM12 colon): 5.11 µM
- TGI (KM12 colon): > 100 µM
- TGI (OVCAR-5 ovarian): > 100 µM
- TGI (HCT-15 colon): > 100 µM
- TGI (K-562 leukemia): > 100 µM
- TGI (NCI-H23 lung): > 100 µM
- TGI (NCI-H226 lung): > 100 µM
- TGI (NCI-H460 lung): > 100 µM
- TGI (SN12C renal): > 100 µM
- TGI (OVCAR-4 ovarian): > 100 µM
- TGI (A549 NSCLC): > 100 µM
- TGI (SK-MEL-5 melanoma): > 100 µM
- TGI (SF-295 CNS): > 100 µM
- TGI (EKVX NSCLC): > 100 µM
- TGI (HCT-116 colon): > 100 µM
- TGI (HOP-92 NSCLC): > 100 µM
- TGI (UACC-257 melanoma): > 100 µM
- TGI (SK-MEL-2 melanoma): > 100 µM
- TGI (HS 578T breast): > 100 µM
- TGI (CCRF-CEM leukemia): > 100 µM

Compound: CCN(C(=S)N[C@H](C(=O)N[C@@H](C)C(=O)OC)C(C)C)c1ccccc1
- TGI (SK-OV-3 ovarian): > 100 µM
- TGI (MCF7 breast): > 100 µM
- TGI (MALME-3M melanoma): 98.2 µM
- TGI (RPMI-8226 leukemia): > 100 µM
- TGI (SK-MEL-28 melanoma): > 100 µM
- TGI (NCI/ADR-RES ovarian): > 100 µM
- TGI (RXF 393 renal): > 100 µM
- TGI (SW-620 colon): > 100 µM
- TGI (TK-10 renal): > 100 µM
- TGI (786-0 renal): > 100 µM
- TGI (PC-3 prostate): > 100 µM
- TGI (MDA-N): > 100 µM
- TGI (T-47D breast): > 100 µM
- TGI (NCI-H522 lung): > 100 µM
- TGI (HCC-2998 colon): > 100 µM
- TGI (LOX IMVI melanoma): > 100 µM
- TGI (SR leukemia): 52.7 µM
- TGI (SF-539 CNS): 84.3 µM
- TGI (MDA-MB-231 breast): > 100 µM
- TGI (HT29 colon): > 100 µM
- TGI (SNB-19 CNS): > 100 µM
- TGI (OVCAR-3 ovarian): > 100 µM
- TGI (CAKI-1 renal): > 100 µM
- TGI (MOLT-4 leukemia): > 100 µM
- TGI (UO-31 renal): > 100 µM
- TGI (OVCAR-8 ovarian): > 100 µM
- TGI (UACC-62 melanoma): > 100 µM
- TGI (COLO 205 colon): > 100 µM
- TGI (U251 CNS): > 100 µM
- TGI (DU-145 prostate): > 100 µM
- TGI (IGROV1 ovarian): > 100 µM
- TGI (MDA-MB-435): > 100 µM
- TGI (ACHN renal): > 100 µM
- TGI (M14 melanoma): > 100 µM
- TGI (HOP-62 NSCLC): > 100 µM
- TGI (KM12 colon): > 100 µM
- TGI (OVCAR-5 ovarian): > 100 µM
- TGI (HCT-15 colon): > 100 µM
- TGI (K-562 leukemia): 80.2 µM
- TGI (NCI-H23 lung): > 100 µM
- TGI (NCI-H226 lung): > 100 µM
- TGI (NCI-H460 lung): > 100 µM
- TGI (SN12C renal): > 100 µM
- TGI (OVCAR-4 ovarian): > 100 µM
- TGI (A549 NSCLC): > 100 µM
- TGI (SK-MEL-5 melanoma): > 100 µM
- TGI (SF-295 CNS): > 100 µM
- TGI (EKVX NSCLC): > 100 µM
- TGI (HCT-116 colon): > 100 µM
- TGI (HOP-92 NSCLC): > 100 µM
- TGI (UACC-257 melanoma): > 100 µM
- TGI (SK-MEL-2 melanoma): > 100 µM
- TGI (BT-549 breast): > 100 µM
- TGI (CCRF-CEM leukemia): > 100 µM

Compound: C[C@]12CC[C@H]3[C@@H](CC[C@]4(O)C[C@@H](O)CC[C@]34/C=N/O)[C@@]1(O)CC[C@@H]2C1=COC(=O)C1
- TGI (SK-OV-3 ovarian): 0.403 µM
- TGI (MALME-3M melanoma): 1.09 µM
- TGI (SK-MEL-28 melanoma): 2.06 µM
- TGI (NCI/ADR-RES ovarian): 0.604 µM
- TGI (RXF 393 renal): 0.091 µM
- TGI (A498 renal): 0.583 µM
- TGI (TK-10 renal): 0.454 µM
- TGI (786-0 renal): 0.362 µM
- TGI (PC-3 prostate): 0.532 µM
- TGI (MDA-N): 1.03 µM
- TGI (T-47D breast): 0.975 µM
- TGI (NCI-H522 lung): 0.371 µM
- TGI (HCC-2998 colon): 0.687 µM
- TGI (LOX IMVI melanoma): 0.489 µM
- TGI (SF-539 CNS): 0.221 µM
- TGI (SNB-75 CNS): 4.44 µM
- TGI (HT29 colon): 0.594 µM
- TGI (SNB-19 CNS): 2.05 µM
- TGI (OVCAR-3 ovarian): 0.349 µM
- TGI (CAKI-1 renal): 0.0476 µM
- TGI (SF-268 CNS): 0.331 µM
- TGI (OVCAR-8 ovarian): 0.458 µM
- TGI (UACC-62 melanoma): 0.919 µM
- TGI (COLO 205 colon): 1.33 µM
- TGI (DU-145 prostate): 0.111 µM
- TGI (IGROV1 ovarian): 2.98 µM
- TGI (MDA-MB-435): 0.623 µM
- TGI (ACHN renal): 0.67 µM
- TGI (M14 melanoma): 0.657 µM
- TGI (KM12 colon): 2.51 µM
- TGI (OVCAR-5 ovarian): 0.998 µM
- TGI (HCT-15 colon): 0.45 µM
- TGI (K-562 leukemia): 0.93 µM
- TGI (NCI-H23 lung): 0.272 µM
- TGI (NCI-H226 lung): 1.35 µM
- TGI (NCI-H460 lung): 0.166 µM
- TGI (SN12C renal): 1.24 µM
- TGI (OVCAR-4 ovarian): 0.279 µM
- TGI (A549 NSCLC): 0.115 µM
- TGI (SK-MEL-5 melanoma): 0.241 µM
- TGI (SF-295 CNS): 0.386 µM
- TGI (EKVX NSCLC): 0.344 µM
- TGI (HCT-116 colon): 0.165 µM
- TGI (HOP-92 NSCLC): 1.06 µM
- TGI (UACC-257 melanoma): 1.62 µM
- TGI (SK-MEL-2 melanoma): 0.587 µM
- TGI (BT-549 breast): 0.245 µM
- TGI (HS 578T breast): > 100 µM
- TGI (CCRF-CEM leukemia): > 100 µM
